Results on eight compounds are retold here after ChEMBL document CHEMBL1201862, “PubChem BioAssay data set” (2004).

Assay in all cases: DTP human tumour cell line panel, 48 h
Experiment [1] concerns A549.
Experiment [2] relates to HCT-15.
Experiment [3] concerns HOP-92.
For experiment [4], the system named is HT-29.
For experiment [5], the system named is Hs-578T.
For experiment [6], the system named is K562.
For experiment [7], the system named is KM12.
Experiment [8] deals with LOX IMVI.
Experiment [9] concerns M14.
Experiment [10] has as its system MDA-MB-231.
Experiment [11] has as its system MDA-MB-435.
Experiment [12] deals with NCI-H522.
In experiment [13] the test system is NCI/ADR-RES.
In experiment [14] the test system is PC-3.
The test system of experiment [15] is RXF 393.
Experiment [16] relates to SF-539.
Experiment [17] has as its system SK-MEL-28.
In experiment [18] the test system is SNB-19.
Experiment [19] has as its system U-251.
Experiment [20] relates to SR.

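Method: 48-hour compound exposure of cells in 96-well plates, five concentrations, linear interpolation of endpoints. Here, GI50 denotes the concentration required for 50% inhibition of growth.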 Active and inactive are the calls of the source. No stated cut-off is given here; in the data, active = GI50 up to about 1.1 µM and inactive = higher. Bounds are passed on as bounds.

For `C(=N/c1ccccc1C1SCCCS1)/c1ccccc1`, the GI50 (as a rule, the concentration that inhibits growth by half) in experiment [1] is > 100 µM (inactive); in [2] it was more than 100 µM; in experiment [3], > 100 µM (inactive); in experiment [4], > 100 µM (inactive); in [5], > 100 µM (inactive); in [6], > 100 µM (inactive). Besides, the GI50 in experiment [7], in [8], in [9], in experiment [10], in [11] and in [12] was > 100 µM (inactive) each time. The GI50 in experiment [13], in experiment [14], in experiment [15], in [16], in experiment [17] and in experiment [18] was > 100 µM (inactive) in each case. Also, the GI50 in experiment [19] is > 100 µM (inactive).
As for `O=CN1CCN(C(=O)c2ccc(Cl)cc2)C1=S`, the GI50 in [1] is 14.9 µM (inactive); in experiment [2], 21.3 µM; in experiment [3], 0.714 µM (active); in experiment [4] it was 17.2 µM (inactive); in experiment [5], 49.5 µM (inactive); in experiment [6], 12.9 µM (inactive). The GI50 is 12.7 µM (inactive) in experiment [7]; 11.7 µM (inactive) in experiment [8]; 14.6 µM (inactive) in experiment [9]; 16.4 µM (inactive) in experiment [10]; 14.8 µM (inactive) in experiment [11]; 14.8 µM (inactive) in experiment [12]. Also, the GI50 in [13] was 36.5 µM (inactive); in [14] it was 15.7 µM (inactive); in experiment [15] it was 16.8 µM (inactive); in experiment [16], 26.6 µM (inactive); in experiment [17], 19.1 µM (inactive); in experiment [18], 15.6 µM (inactive). For the same compound, in experiment [19], the GI50 was 14.4 µM (inactive).
For `O/N=C(\C=N\O)c1ccc2c(c1)Sc1ccccc1O2`, the GI50 in experiment [1] was 30.8 µM (inactive); in [2], 25.9 µM; in experiment [3] it was 15.6 µM (inactive); in experiment [4], 21.4 µM (inactive); in experiment [5], 24.9 µM (inactive); in [6], 22.1 µM (inactive). Moreover, the GI50 is 33 µM (inactive) in experiment [7]; 30.5 µM (inactive) in experiment [8]; 19.9 µM (inactive) in [9]; 15.7 µM (inactive) in experiment [10]; 12.1 µM (inactive) in experiment [11]; 3.53 µM (inactive) in [12]. The GI50 was 14.8 µM (inactive) in [14]; 15.8 µM (inactive) in experiment [15]; 26.4 µM (inactive) in [16]; 30.5 µM (inactive) in experiment [17]; 24.2 µM (inactive) in [18]; 19.7 µM (inactive) in experiment [20]. Further, the GI50 in [19] is 26.8 µM (inactive).
As to `CCC(=O)C(c1ccccc1)c1ccccn1` (stereo unspecified), the GI50 is > 100 µM (inactive) in experiment [1]; more than 100 µM in experiment [2]; > 100 µM (inactive) in experiment [3]; > 100 µM (inactive) in experiment [4]; > 100 µM (inactive) in experiment [5]; > 100 µM (inactive) in [7]. The GI50 in experiment [8], in experiment [9], in experiment [10], in experiment [11], in [12] and in experiment [13] was > 100 µM (inactive) in each case. Besides, the GI50 in [14], in experiment [15], in [17], in experiment [18] and in experiment [19] was > 100 µM (inactive) each time.
Take `NC(=O)NNC(=O)c1nc[nH]c1[N+](=O)[O-]`: the GI50 in experiment [1] is > 100 µM (inactive); in experiment [2], more than 100 µM; in experiment [4], > 100 µM (inactive); in experiment [5] it was > 100 µM (inactive); in experiment [6], > 100 µM (inactive); in experiment [8] it was > 100 µM (inactive). Moreover, the GI50 in [9], in experiment [10], in [11], in experiment [12], in experiment [13] and in experiment [14] was > 100 µM (inactive) throughout. The GI50 in [15], in experiment [16], in experiment [17] and in [19] was > 100 µM (inactive) in each case.
`O=C1C(Cl)=C(NCCCN2CCOCC2)C(=O)c2c(O)ccc(O)c21`: the GI50 in [1] was 3.9 µM (inactive); in experiment [2] it was 1.26 µM; in [4] it was 2.75 µM (inactive); in [5], 1.27 µM (inactive); in [6] it was 2.62 µM (inactive); in [7], 1.85 µM (inactive). For the same compound, the GI50 was 1.8 µM (inactive) in [8]; 1.96 µM (inactive) in [9]; 3.01 µM (inactive) in experiment [10]; 1.85 µM (inactive) in experiment [11]; 2.96 µM (inactive) in [14]; 1.75 µM (inactive) in [15]. Besides, the GI50 in experiment [16] is 1.68 µM (inactive); in experiment [17] it was 1.77 µM (inactive); in experiment [18], 1.66 µM (inactive); in experiment [20] it was 2.58 µM (inactive); in experiment [19], 2.19 µM (inactive).
As to `O=C(O)C(O)C(O)C(O)C(O)c1nc2ccccc2s1` (stereo unspecified), the GI50 in [1] was 18.2 µM (inactive); in experiment [2] it was 27.9 µM; in experiment [3] it was 18.2 µM (inactive); in [4], 21.2 µM (inactive); in experiment [5] it was 16.7 µM (inactive); in [7], 24.7 µM (inactive). In addition, the GI50 in experiment [8] was 16.9 µM (inactive); in [9] it was 17.8 µM (inactive); in experiment [10] it was 16.6 µM (inactive); in experiment [11], 17.3 µM (inactive); in experiment [12], 12.3 µM (inactive); in [13] it was 31 µM (inactive). Besides, the GI50 is 15.3 µM (inactive) in experiment [14]; 18 µM (inactive) in experiment [15]; 17.9 µM (inactive) in experiment [16]; 20.3 µM (inactive) in [17]; 20.1 µM (inactive) in [18]; 15.7 µM (inactive) in [19].
For the compound `COC(=O)[C@]1(c2cc3ccccc3n2S(=O)(=O)c2ccccc2)CC2CN(C(=O)OCc3ccccc3)C1C1OC(C)(C)OC21` (stereo partly specified), the GI50 in [1] is 23.9 µM (inactive); in experiment [2], more than 100 µM; in experiment [3], 10.2 µM (inactive); in experiment [4], > 100 µM (inactive); in experiment [5], > 100 µM (inactive); in experiment [7], > 100 µM (inactive). The GI50 is > 100 µM (inactive) in experiment [8]; 80.5 µM (inactive) in [9]; > 100 µM (inactive) in experiment [10]; > 100 µM (inactive) in experiment [11]; 1.31 µM (inactive) in experiment [12]; > 100 µM (inactive) in [13]. In addition, the GI50 in experiment [14] is > 100 µM (inactive); in experiment [15] it was > 100 µM (inactive); in [17] it was 1.26 µM (inactive); in experiment [19] it was > 100 µM (inactive).
